Source: patent US7270949B2, “Fluorescence based T-type channel assay” (Neuromed Pharmaceuticals Ltd., priority 2003, dated 2007)

Columns and labels:
[1] = system: α1 subunit of T-type calcium channels; assay: Fluorescence based assay for T-type modulators (FLUO-4, gramicidin/NMDG, KCl pulse); assay type: cell-based; conditions: transfected HEK 293 cells; various concentrations; FIG. 5; positive control
Method: Mammalian cell lines stably expressing α1 subunit of T-type calcium channels were constructed by transfecting α1 calcium channel subunit DNA into HEK 293 cells and selecting for antibiotic resistance. Briefly, a full-length T-type calcium channel α1 subunit was subcloned into an expression vector with a selectable marker, pcDNA3 (InvitroGen, San Diego, Calif.). The vector was transfected into HEK 293 cells by lipofection and the cells incubated for 16-20 hours. The cells were fed nonselective medium and incubated for an additional 24 hours, then trypsinized and plated at low density in selective medium supplemented with Geneticin (G418) at a concentration of between 600 to 800 μg/ml. […] After growing up each isolated colony to confluency to establish cell lines, the expression of T-type calcium channels was determined by Northern and Southern blotting. […]
Each well was then treated with fluorescence dye solution containing a mixture of 50 μg FLUO-4 AM (Molecular Probes, F-14201); 45.5 μl DMSO; 45.5 μl 20% Pluronic F-127 (Molecular Probes, P-6867) and 4 ml MKH buffer. […]
To each well, EB buffer was added also containing DMSO at a concentration equal to that of the test compounds for negative controls, the known blocker penfluoridol at 2.5 μM for positive control, and test compounds (diluted in DMSO) for experimental wells. […] Background fluorescence was read in all wells. […]

[2] = system: membrane potential of cells; assay: Membrane potential of cells with gramicidin, NMDG substituted for external sodium (FIG. 3); assay type: cell-based; conditions: 5 μg/ml gramicidin, absence of external sodium (NMDG)
Method: As shown, when 5 μg/ml gramicidin is added in the absence of external sodium, the membrane potential decreases to about −70 mV.

| Molecule | blocking calcium ion transport (fluorescence) [1] | membrane potential [2] |
| --- | --- | --- |
| OC1(c2ccc(Cl)c(C(F)(F)F)c2)CCN(CCCC(c2ccc(F)cc2)c2ccc(F)cc2)CC1 [penfluoridol] | successful in blocking calcium ion transport | – |
| gramicidin | – | about −70 mV |
